The results in this text go back to patent publication US20010044445A1, “AZOLE INHIBITORS OF CYTOKINE PRODUCTION” (priority 1999, published 2001).

Each structure is given as a SMILES string.

This test concerns Human peripheral blood mononuclear cells. The test can be described thus: Human Concanavalin-A Proliferation Assay (Con HU Assay). The test is classed as cell-based. Particulars: concanavalin-A stimulated human PBMC; for % Inhibition of proliferation (at concentrations of 1,10, or 100 μm) / inhibition at 100 µM / inhibition at 1 µM / inhibition at 10 µM: 3 days; for inhibition at 100 µM / inhibition at 1 µM / inhibition at 10 µM: 72 h, read-out: % Inhibition of proliferation (at concentrations of 1,10, or 100 μm); for IC50: tritiated thymidine. As for the experimental part:
Human peripheral blood mononuclear cells were cultured in RPMI 1640 medium supplemented with 10 μg/ml gentamicin, 50 μM 2-mercaptoethanol, 1X MEM non-essential amino acids (Sigma Chemical Co., St. Louis, Mo.), 100 U/ml sodium penicillin G, 100 μg/ml streptomycin sulfate, 2 mM L-glutamine, 1 mM sodium pyruvate (Life Technologies, Grand Island, N.Y.) and 10% fetal bovine serum (Hyclone, Logan, Utah) at 37° C. with 5% CO2.
The procedure in Current Protocols in Immunology, Volume 1, Published by the Greene Publishing Associates and John Wiley & Sons, Inc, Edited by Richard Coico, 1994, hereby incorporated by reference, was followed. Briefly, 50 ml of blood from human volunteers was collected in heparinized syringes and mixed. Blood was diluted 1:1 in Dulbecco's phosphate buffered saline (D-PBS) (Life Technologies, Grand Island, N.Y.) and mixed. PBS-blood mixture was overlaid into 50 ml centrifuge tubes containing 15 ml Histopaque 1077 (Sigma Chemical Co., St. Louis, Mo.) and centrifuged at 500 X G for 30 minutes at room temperature. Cells at the interface from each Histopaque tube were removed and mixed with 5 ml of D-PBS. Each cell suspension was diluted to 50 ml with D-PBS, mixed and centrifuged at 400 X G for 15 minutes at room temperature. After most of the supernatant was removed, cells were resuspended to 40 ml with D-PBS per tube (2 tubes per donor). Cells were centrifuged at 400 X G for 10 minutes at room temperature. Pellets were resuspended in 10 ml of supplemented RPMI 1640 and cell number determined with a Coulter counter. Cells were diluted to a concentration of 0.5×10^6 cells per mL.
The procedure in Current Protocols in Immunology, Volume 1, Published by the Greene Publishing Associates and John Wiley & Sons, Inc, Edited by Richard Coico, 1994, hereby incorporated by reference, was followed. Briefly, test compounds were added to appropriate wells on 96-well tissue culture plates (Corning Glass Works, Corning, N.Y.) in 20 µl of supplemented RPMI 1640. Human peripheral blood mononuclear cells were added to each well in 100 μl volumes (final cell concentration equal to 50,000 cells per well). After 15 minutes, 100 μl of 5 μg/ml concanavalin-A (Sigma Chemical Co., St. Louis, Mo.) in supplemented RPMI 1640 was added to a final concentration of 2.5 μg/ml. Plates were incubated for 3 days at 37° C. with 5% CO2. On day 3, plates were pulsed with 0.5 μCi/well tritiated thymidine (New England Nuclear, Boston, Mass.). After 6 hours, plates were harvested on a Tomatec 96-well havester (Orange, Conn.). Glass filter mats were counted on a Matrix 9600 direct beta counter (Packard, Meriden, Conn.).

Where [1] appears, read: concentration 1 μm (in parentheses in the cell).
The mark [2] stands for this setting: Homo sapiens, PBMC, concentration 100 μm (in parentheses in the cell).
Setting [3] is: Homo sapiens, PBMC, concentration 1 μm (in parentheses in the cell).
Where [4] appears, read: Homo sapiens, PBMC, concentration 10 μm (in parentheses in the cell).
The mark [5] stands for this setting: concentration 100 μm (in parentheses in the cell).

Regarding `CC1(C)C(C(=O)Nc2ccc(-n3nc(C(F)(F)F)cc3C(F)(F)F)cc2)C1(C)C` [Example 2, N-[4-[3,5-bis(trifluoromethyl)-1H-pyrazol-1-yl]phenyl]-2.2.3.3-tetramethylcyclopropanecarboxamide], the “% Inhibition of proliferation (at concentrations of 1,10, or 100 μm)” value (from here on “% Inhibition of proliferation”) under setting [1] was 1(1) %. Consider `O=S(=O)(Nc1ccc(-n2nc(C(F)(F)F)cc2C(F)(F)F)cc1)c1cc(F)cc(F)c1` [Example 5, N-[4-[3,5-bis(trifluoromethyl)-1H-pyrazol-1-yl]phenyl]-3,5-difluorobenzenesulfonamide], for which, under setting [2], the inhibition at 100 µM was determined as 100%. Where the note is “Homo sapiens, PBMC”, half-maximal inhibition (IC50) was put at 33700 nM.

With `O=C(CCCC[C@@H]1SC[C@@H]2NC(=O)N[C@@H]21)Nc1ccc(-n2nc(C(F)(F)F)cc2C(F)(F)F)cc1` [Example 23, 3a(S)-(3aα,4β,6aα)-N-[4-[3,5-bis(trifluoromethyl)-1H-pyrazol-1-yl]phenyl]hexahydro-2-oxo-1H-thieno[3,4-d]limidazole-4-pentanamide], under setting [1], the “% Inhibition of proliferation” value is 4(1) %. For `O=C(Nc1ccc(-n2nc(C(F)(F)F)cc2C(F)(F)F)cc1)C1CC2C=CC1C2` (centres unmarked) [Example 26, N-[4-[3,5-bis(trifluoromethyl)-1H-pyrazol-1-yl]phenyl]bicyclo[2.2.1]hept-5-ene-2-carboxamide], under setting [3], the inhibition at 1 µM worked out at 24%. As for `CC1CCCCC1C(=O)Nc1ccc(-n2nc(C(F)(F)F)cc2C(F)(F)F)cc1` (centres unmarked) [Example 27, N-[4-[3,5-bis(trifluoromethyl)-1H-pyrazol-1-yl]phenyl]-2-methylcyclohexanecarboxamide], the inhibition at 10 µM under setting [4] was 100%. The same compound registered an IC50 (Homo sapiens, PBMC) of 299 nM. As for `Cc1ccc([N+](=O)[O-])cc1NC(=O)Nc1ccc(-n2nc(C(F)(F)F)cc2C(F)(F)F)cc1` [Example 50], the “% Inhibition of proliferation” value under setting [1] was 2(1) %. As to `O=C(Nc1ccc(-n2nc(C(F)(F)F)cc2C(F)(F)F)cc1)C1C=CCCC1` (centres unmarked) [Example 53, N-[4-[3,5-bis(trifluoromethyl)-1H-pyrazol-1-yl]phenyl]-2-cyclohexane-1-carboxamide], the IC50 was determined as 202 nM. The “% Inhibition of proliferation” value under setting [5] is 99(100) %. `CC1CCC(C(=O)Nc2ccc(-n3nc(C(F)(F)F)cc3C(F)(F)F)cc2)CC1` (centres unmarked) [Example 54, N-[4-[3,5-bis(trifluoromethyl)-1H-pyrazol-1-yl]phenyl]-4-methylcyclohexanecarboxamide]: under setting [3], the inhibition at 1 µM was 12%.

As to `O=C(Nc1ccc(-n2nc(C(F)(F)F)cc2C(F)(F)F)cc1)c1cccc2ccccc12` [Example 66, N-[4-[3,5-bis(trifluoromethyl)-1H-pyrazol-1-yl]phenyl]-1-naphthylenecarboxamide], the IC50 came out at 1040 nM. Moreover, under setting [5], the “% Inhibition of proliferation” value is 97(100) %. For the compound `Cc1cc(Br)ccc1NC(=O)Nc1ccc(-n2nc(C(F)(F)F)cc2C(F)(F)F)cc1` [Example 77, N-[4-[3,5-bis(trifluoromethyl)-1H-pyrazol-1-yl]phenyl]-N′-(4-bromo-2-methylphenyl)urea], the inhibition at 10 µM under setting [4] was found to be 93%. The 50% inhibitory concentration (IC50) (Homo sapiens, PBMC) worked out at 655 nM. In the case of `CN(C(=O)c1ccccc1Cl)c1ccc(-n2nc(C(F)(F)F)cc2C(F)(F)F)cc1` [Example 80, N-[4-[3,5-bis(trifluoromethyl)-1H-pyrazol-1-yl]phenyl]-2-chloro-N-methylbenzamide], the inhibition at 1 µM under setting [3] worked out at 43%.

`CN(C(=O)c1ccc([N+](=O)[O-])cc1Cl)c1ccc(-n2nc(C(F)(F)F)cc2C(F)(F)F)cc1` [Example 81, N-[4-[3,5-bis(trifluoromethyl)-1H-pyrazol-1-yl]phenyl]-2-chloro-4-nitro-N-methylbenzamide]: the inhibition at 1 µM under setting [3] is 30%.

As to `CN(C)c1ccccc1C(=O)Nc1ccc(-n2nc(C(F)(F)F)cc2C(F)(F)F)cc1` [Example 86, N-[4-[3,5-bis(trifluoromethyl)-1H-pyrazol-1-yl]phenyl]-2-(dimethylamino)benzamide], the inhibition at 1 µM under setting [3] came out at 33%. Compound `N#Cc1cccc(NCc2ccc(-n3nc(C(F)(F)F)cc3C(F)(F)F)cc2)c1` [Example 95, 3-[4-[[[3,5-bis(trifluoromethyl)-1H-pyrazol-1-yl]phenyl]methyl]amino]benzonitrile] came in with an IC50 of 7280 nM. Moreover, the “% Inhibition of proliferation” value (concentration 10 μm (in parentheses in the cell)) is 47(10) %. As for `Fc1ccc(/N=C/c2ccc(-n3nc(C(F)(F)F)cc3C(F)(F)F)cc2)c(F)c1` [Example 97, (E)-N-[4-[3,5-bis(trifluoromethyl)-1H-pyrazol-1-yl]phenylmethylene]-2,4-difluorobenzenamine], under setting [4], the inhibition at 10 µM turned out to be 20%. Regarding `COc1ccc(C(=O)Nc2ccc(-n3nc(C(F)(F)F)cc3C(F)(F)F)cc2)cc1OC` [Example 98, N-[4-[3,5-bis(trifluoromethyl)-1H-pyrazol-1-yl]phenyl]-3-4-dimethoxybenzamide], it took 4920 nM to reach half-maximal inhibition (IC50). Besides, under setting [5], the “% Inhibition of proliferation” value was 94(100) %.

Take `Fc1ccc(NCc2ccc(-n3nc(C(F)(F)F)cc3C(F)(F)F)cc2)c(F)c1` [Example 108, 4-[3,5-bis(trifluoromethyl)-1H-pyrazol-1-yl]-N-(2,4-difluorophenyl)benzenemethanamine]: the inhibition at 1 µM under setting [3] came to 18%. In turn, `CCCCCCCc1ccc(C(=O)Nc2ccc(-n3nc(C(F)(F)F)cc3C(F)(F)F)cc2)cc1` [Example 111, N-[4-[3,5-bis(trifluoromethyl)-1H-pyrazol-1-yl]phenyl]-4-heptybenzamide] had an IC50 of 41000 nM. In addition, the “% Inhibition of proliferation” value under setting [5] is reported as 76(100) %. On to `CNC(=O)c1ccccc1C(=O)Nc1ccc(-n2nc(C(F)(F)F)cc2C(F)(F)F)cc1` [Example 115, N-[4-[3,5-bis(trifluoromethyl)-1H-pyrazol-1-yl]phenyl]-N′-methyl-1,2-benzenedicarboxamide], for which, under setting [2], the inhibition at 100 µM was 71%. Also, the IC50 (Homo sapiens, PBMC) is 51300 nM. The like results for `CC(C)(C)OC(=O)N1CCC(C(=O)Nc2ccc(-n3nc(C(F)(F)F)cc3C(F)(F)F)cc2)CC1` [Example 120, 1,1-Dimethylethyl 4-[[[4-[3,5-bis(trifluoromethyl)-1H-pyrazol-1-yl]phenyl]amino]carbonyl]-1-piperidinecarboxylate] were, in that order, 100% and 488 nM.

On to `O=C(Nc1ccc(-n2nc(C(F)(F)F)cc2C(F)(F)F)cc1)c1ccccn1` [Example 121, N-[4-[3,5-bis(trifluoromethyl)-1H-pyrazol-1-yl]phenyl]-2-pyridinecarboxamide], for which the inhibition at 100 µM under setting [2] was 53%. Further, under “Homo sapiens, PBMC”, it took 10600 nM to reach half-maximal inhibition (IC50). As for `CCN(CC)c1ccc(C(=O)Nc2ccc(-n3nc(C(F)(F)F)cc3C(F)(F)F)cc2)cc1` [Example 122, N-[4-[3,5-bis(trifluoromethyl)-1H-pyrazol-1-yl]phenyl]-4-(diethylamino)benzamide], the inhibition at 1 µM under setting [3] was found to be 15%. In turn, `O=C(Nc1ccc(-n2nc(C(F)(F)F)cc2C(F)(F)F)cc1)C1CCCC1` [Example 123, N-[4-[3,5-bis(trifluoromethyl)-1H-pyrazol-1-yl]phenyl]cyclopentanecarboxmide] gave an IC50 of 256 nM. Besides, under setting [5], the “% Inhibition of proliferation” value is reported as 99(100) %. The compound `O=C(Nc1ccc(-n2nc(C(F)(F)F)cc2C(F)(F)F)cc1)C1CCCCC1` [Example 124, N-[4-[3,5-bis(trifluoromethyl)-1H-pyrazol-1-yl]phenyl]cyclohexanecarboxmide] displayed an IC50 of 285 nM. For the same compound, under setting [5], the “% Inhibition of proliferation” value is 99(100) %.

As for `N#Cc1cccc(NCc2ccc(-n3nc(C(F)(F)F)cc3C(F)(F)F)cc2)c1` [Example 128, 3-[[[4-[3,5-bis(trifluoromethyl)-1H-pyrazol-1-yl]phenyl]methyl]amino]benzonitrile], under setting [3], the inhibition at 1 µM came out at 25%.
